Results as given in ChEMBL document CHEMBL1150504, “Pharmacological evaluation of combined PGI2 agonists/thromboxane synthase inhibitors. I” (Bioorg Med Chem Lett, 1995).

These compounds were tested against T1, Thromboxane-A synthase (Homo sapiens, UniProt P24557) (assay: Inhibitory activity against Thromboxane A2 synthase in human platelet microsome).
T1 sequence (P24557 whole entry): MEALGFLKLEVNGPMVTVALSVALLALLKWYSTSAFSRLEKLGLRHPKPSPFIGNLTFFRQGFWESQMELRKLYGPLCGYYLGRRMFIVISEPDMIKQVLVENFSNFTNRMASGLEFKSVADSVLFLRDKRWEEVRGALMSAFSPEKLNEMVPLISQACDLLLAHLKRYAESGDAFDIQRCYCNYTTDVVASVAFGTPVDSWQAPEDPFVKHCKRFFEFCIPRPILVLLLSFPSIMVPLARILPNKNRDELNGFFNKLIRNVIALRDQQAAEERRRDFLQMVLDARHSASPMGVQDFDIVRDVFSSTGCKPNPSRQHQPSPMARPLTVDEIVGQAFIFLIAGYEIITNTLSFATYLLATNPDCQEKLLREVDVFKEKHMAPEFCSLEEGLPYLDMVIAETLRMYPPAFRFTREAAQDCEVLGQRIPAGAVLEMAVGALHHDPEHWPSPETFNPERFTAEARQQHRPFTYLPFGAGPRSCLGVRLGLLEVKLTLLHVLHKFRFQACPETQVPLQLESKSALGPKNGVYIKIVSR

| IC50 | SMILES |
| --- | --- |
| Not Active | O=C(O)COc1cccc2c1CCCC2CCC(=O)NN(c1ccccc1)c1ccccc1 (stereo not drawn) |
| Not Active | O=C(O)COc1cccc2c1CCC(Cn1cc(C(c3ccccc3)c3ccccc3)cn1)C2 (stereo not drawn) |
| Not Active | CCC/C(CC1CCc2c(cccc2OCC(=O)O)C1)=N\OC(c1ccccc1)c1ccccc1 (stereo not drawn) [AP-227] |

Species: Homo sapiens
Experiment: PGI-2 agonistic activity by measuring inhibition of 4 uM ADP-induced human platelet aggregation; call rule not given here
Type: functional

| IC50 | SMILES |
| --- | --- |
| 480 nM | C/C(CC1CCc2c(cccc2OCC(=O)O)C1)=N\OC(c1ccccc1)c1ccncc1 (stereo not drawn) |
| 440 nM | O=C(O)COc1cccc2c1CCCC2CCC(=O)NN(c1ccccc1)c1cccnc1 (stereo not drawn) |
| 1400 nM | C/C(CC1CCc2c(cccc2OCC(=O)O)C1)=N\OC(c1ccccc1)c1cccnc1 (stereo not drawn) |
| 320 nM | CCC/C(CC1CCc2c(cccc2OCC(=O)O)C1)=N\OC(c1ccccc1)c1cccnc1 (stereo not drawn) |
| 130 nM | O=C(O)COc1cccc2c1CCC(Cn1cc(C(c3ccccc3)c3ccccc3)cn1)C2 (stereo not drawn) |
| 230 nM | C/C(CC1CCc2c(cccc2OCC(=O)O)C1)=N\OC(c1ccccc1)c1ccccc1 (stereo not drawn) |
| 240 nM | O=C(O)COc1cccc2c1CCCC2CCO/N=C(\c1ccccc1)c1cccnc1 (stereo not drawn) |
| 1.4 nM | CC#CCC(C)[C@H](O)/C=C/[C@@H]1[C@H]2C/C(=C/CCCC(=O)O)C[C@H]2C[C@H]1O (stereo partly drawn) [ILOPROST] |
| 570 nM | C/C(CC1CCc2c(cccc2OCC(=O)O)C1)=N\OC(c1ccccc1)c1ccccn1 (stereo not drawn) |
| 150 nM | O=C(O)COc1cccc2c1CCC(Cn1cc(C(c3ccccc3)c3cccnc3)cn1)C2 (stereo not drawn) |

Species: Homo sapiens
Experiment: PGI-2 agonistic activity by measuring inhibition of 4 uM ADP-induced human platelet aggregation; Inactive
Type: functional

| IC50 | SMILES |
| --- | --- |
| Not Active | C/C(=C\c1ccc(Cc2cccnc2)cc1)C(=O)[O-].[Na+] [ONO-1581] |
| Not Active | O=C(O)/C=C/c1ccc(Cn2ccnc2)cc1 [OZAGREL] |

Each compound was assayed against T1, Thromboxane-A synthase (assay: Inhibitory activity against Thromboxane A2 synthase in human platelet microsome; Inactive).

| IC50 | SMILES |
| --- | --- |
| Not Active | O=C(O)COc1cccc2c1CCCC2CCON=C(c1ccccc1)c1ccccc1 (stereo not drawn) |
| Not Active | C/C(CC1CCc2c(cccc2OCC(=O)O)C1)=N\OC(c1ccccc1)c1ccccc1 (stereo not drawn) |

Each compound was assayed against T1, Thromboxane-A synthase (assay: Inhibitory activity against Thromboxane A2 synthase in human platelet microsome; inactive).

| IC50 | SMILES |
| --- | --- |
| Not Active | CC#CCC(C)[C@H](O)/C=C/[C@@H]1[C@H]2C/C(=C/CCCC(=O)O)C[C@H]2C[C@H]1O (stereo partly drawn) [ILOPROST] |
